Reference: the supplement of paper PMC10307832

Tests used:
Experiment in all cases: relative viability (nuclei count vs DMSO), 5 days (fraction); higher = more cells survive
Quizartinib + OSI-027 = compound: CC(C)(C)c1cc(NC(=O)Nc2ccc(-c3cn4c(n3)sc3cc(OCCN5CCOCC5)ccc34)cc2)no1 [Quizartinib] + COc1cccc2cc(-c3nc([C@H]4CC[C@H](C(=O)O)CC4)n4ncnc(N)c34)[nH]c12 [OSI-027] (partner 0.5 µM)
In short: (§1)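 A single step with final 0.05% Triton X-100, 1% formaldehyde and 1 ug/ml Hoechst fixed the cells and stained nuclei 5 days after treatment. Lung cancer cell lines in 1536-well plates had been treated by pin tool the day after seeding with one drug alone or a fixed anchor-drug dose plus five library-drug doses (not always all listed) in √10 steps, and nuclei were counted on 4× images. Relative viability is the ratio of nuclei in treated wells to nuclei in vehicle wells, taken as the median of duplicate plates.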

Quizartinib + Vorinostat = compound: CC(C)(C)c1cc(NC(=O)Nc2ccc(-c3cn4c(n3)sc3cc(OCCN5CCOCC5)ccc34)cc2)no1 [Quizartinib] + O=C(CCCCCCC(=O)Nc1ccccc1)NO [Vorinostat] (partner 1 µM)
In short: as §1

YM155 + Navitoclax = compound: COCC[n+]1c2c(n(Cc3cnccn3)c1C)C(=O)c1ccccc1C2=O [YM155] + CC1(C)CCC(c2ccc(Cl)cc2)=C(CN2CCN(c3ccc(C(=O)NS(=O)(=O)c4ccc(N[C@H](CCN5CCOCC5)CSc5ccccc5)c(S(=O)(=O)C(F)(F)F)c4)cc3)CC2)C1 [Navitoclax] (partner 0.5 µM)
In short: as §1

YM155 + Linsitinib = compound: COCC[n+]1c2c(n(Cc3cnccn3)c1C)C(=O)c1ccccc1C2=O [YM155] + C[C@]1(O)C[C@@H](c2nc(-c3ccc4ccc(-c5ccccc5)nc4c3)c3c(N)nccn32)C1 [Linsitinib] (partner 1 µM)
In short: as §1

Cell Line	relative viability (Quizartinib + OSI-027; first compound 0.001 µM)	relative viability (Quizartinib + OSI-027; first compound 0.003162 µM)	relative viability (Quizartinib + OSI-027; first compound 0.01 µM)	relative viability (Quizartinib + OSI-027; first compound 0.03162 µM)	relative viability (Quizartinib + OSI-027; first compound 0.1 µM)	relative viability (Quizartinib + Vorinostat; first compound 0.001 µM)	relative viability (Quizartinib + Vorinostat; first compound 0.003162 µM)	relative viability (Quizartinib + Vorinostat; first compound 0.01 µM)	relative viability (Quizartinib + Vorinostat; first compound 0.03162 µM)	relative viability (Quizartinib + Vorinostat; first compound 0.1 µM)	relative viability (YM155 + Navitoclax; first compound 0.002 µM)	relative viability (YM155 + Navitoclax; first compound 0.006325 µM)	relative viability (YM155 + Navitoclax; first compound 0.02 µM)	relative viability (YM155 + Navitoclax; first compound 0.06325 µM)	relative viability (YM155 + Linsitinib; first compound 0.002 µM)	relative viability (YM155 + Linsitinib; first compound 0.006325 µM)	relative viability (YM155 + Linsitinib; first compound 0.02 µM)	relative viability (YM155 + Linsitinib; first compound 0.06325 µM)
EPLC-272H	0.249	0.28	0.264	0.271	0.263	0.427	0.337	0.484	0.58	0.692	1.14	1.11	1.13	1.18	1.22	1.19	1.1	1.06
RERF-LC-KJ	0.536	0.534	0.592	0.341	0.521	0.58	0.707	0.751	0.53	0.691	1.04	1.07	0.974	1.06	0.859	0.878	0.923	0.864
NCI-H1793	0.27	0.298	0.232	0.309	0.232	0.642	0.888	0.762	0.809	0.881		0.337	0.422	0.301		0.639	0.886	0.483
NCI-H727	0.412	0.624	0.539	0.869	0.699	1.16	1.13	1.18	1.27	1.42	0.479	0.382	0.39	0.48	0.28	0.321	0.28	0.364
SK-LU-1	0.316	0.312	0.377	0.35	0.37	0.766	0.716	0.896	0.835	0.892	1.05	0.559	1.27	0.418	1.08	1.04	1.21	0.708
PC-14	0.737	0.754	1		0.882	0.707	0.693	0.858		0.858	1.02	1.06	0.997	0.982	0.967	0.984	0.981	0.993
NCI-H1437	0.789	0.868	0.853	0.956	0.747	0.606	0.81	0.78	0.758	0.591	1.07	1.08	1.09	1.01	0.994	1.05	0.989	0.878
